Results on 20 compounds are retold here after US4962107A, “Agent for cerebral protection” (Kyowa Hakko Kogyo Kabushiki Kaisha, priority 1985, dated 1990).

SMILES strings stand for the structures.

In data set [1] the test system is mice subjected to normobaric hypoxia. The data set can be described thus: Effects on survival time of mice subjected to normobaric hypoxia. It counts as in vivo, mouse (ddY strain; male). The settings on record: 50 mg/kg oral, 2 h before; 96% nitrogen/4% oxygen; protected = alive 10 or more minutes. As to the method:
Mice (ddY strain; male; body weight 20-22 g) were used as test animals. Each group consisted of 10 or more mice. A test compound (50 mg/kg) was orally administered to each mouse.
Then each animal was put into a glass cylinder (capacity: 700 ml) and a mixture of nitrogen (96%) and oxygen (4%) was passed through the cylinder at a velocity of 5 1 /min and expelled through a hole in the side wall. The time from the start of the gas mixture supply to the cessation of respiratory motion was measured, and animals which remained alive for 10 or more minutes were evaluated as "protected". Among 50 untreated animals, no animal remained alive. In use, the test compound was suspended in an aqueous solution of carboxymethylcellulose sodium (0.3%).

A short description of data set [2]: Test for acute toxicity (LD50, oral, 7 days). The settings on record: mouse, in vivo, mice, deaths within 7 days, 5 mice per group. The procedure: Mice (ddY strain; male; body weight 21-23 g) were used as test animals. Each group consisted of 5 mice. The test compound was orally administered to each mouse. During the test period of 7 days after the administration, the number of deaths in each group was counted to calculate the LD50. All animals were bred in a breeding room, maintained at a temperature of 23°±2° C. and a humidity of 55-60%. These animals were given a solid feed "F-2" (commercial product of Funabashi Nojo) and city water ad libitum.

For data set [3] the following is noted: cited from literature / background; cited from earlier work.
Data set [4] concerns cerebral ischaemia or cerebral hypoxia. The settings on record: cited from literature; cited from earlier work.
A short description of data set [5]: Acute toxicity (general statements, comparison with nizofenone). The conditions noted are these: in vivo, po; per os; species and method not stated at this place.
Data set [6] deals with mice subjected to anaemic hypoxia. The data set can be described thus: Effects on survival time of mice subjected to anaemic hypoxia (NaNO2). It counts as in vivo, mouse (ddY strain; male). The conditions noted are these: 30 mg/kg oral, 2 h before; NaNO2 225 mg/kg s.c.; mean ± S.E.; *P < 0.05, **P < 0.001 vs control. As to the method: (Hypoxia induced by NaNO2 administration to convert haemoglobin to methemoglobin)
Mice (ddY strain; male; body weight 20-22 g) were used as test animals. Each group consisted of 10 or more mice. A test compound (30 mg/kg) was orally administered to each mouse. Two hours after the administration, NaNO2 (225 mg/kg) was subcutaneously administered to each mouse. The time from the NaNO2 administration to death was measured. Survival time of the compound-administered group and that of the control group were compared by t-test.

Data set [7] deals with mice subjected to hypobaric hypoxia. The data set can be described thus: Effects on survival time of mice subjected to hypobaric hypoxia. It counts as in vivo, mouse (ddY strain; male). The conditions noted are these: 30 mg/kg oral, 2 h before; 150 mmHg; mean ± S.E.; *P < 0.05, **P < 0.001 vs control. The procedure:
Mice (ddY strain; male; body weight 20-22 g) were used as test animals. Each group consisted of 10 or more mice. A test compound (30 mg/kg) was orally administered to each mouse. Two hours after the administration, each animal was put into a desiccator (capacity: 9 l), and the inside pressure of the desiccator was reduced to 150 mmHg over a period of 52-55 seconds. The time from the start of the pressure reduction to the cessation of respiratory motion was measured. Survival time of the compound-administered group and that of the control group were compared by t-test.

The subject of data set [8] is decapitated heads of mice. The data set can be described thus: Effect on time of gasping persistence by decapitated heads of mice. It counts as in vivo, mouse (ddY strain; male). The settings on record: 30 mg/kg oral, 2 h before decapitation; mean ± S.E.; **P < 0.001 vs control. The procedure:
Mice (ddY strain; male; body weight 20-22 g) were used as test animals. Each group consisted of 10 or more mice. A test compound (30 mg/kg) was orally administered to each mouse. Two hours after the administration, each animal was decapitated, and the time from the decapitation to the cessation of gasping was measured. Time of gasping persistence of the treated group and that of the control group were compared by t-test.

For `O=C(C=Cc1ccc(C(F)(F)F)cc1)N1CC[S+]([O-])CC1` [Compound 12, 4-(4-trifluoromethylcinnamoyl) thiomorpholine-1-oxide], the “A/B (number of animals surviving / number of animals tested)” value in data set [1] is reported as 8/10.

Consider `O=C(C=Cc1ccc(Cl)cc1)N1CCOCC1` [Compound 16, 4(4-chlorocinnamoyl) morpholine], for which, in data set [2], the 50% lethal dose (LD50) at 168 h fell in the range of 675 to 1010 mg/kg. For the same compound, the “A/B (number of animals surviving / number of animals tested)” value in data set [1] was 5/10.

For the compound `CC1CCCC(C)N1C(=O)C=Cc1ccc(C(F)(F)F)cc1` (stereo not drawn) [Compound 5, 2,6-Dimethyl-1-(4-trifluoromethylcinnamoyl) piperidine], the median lethal dose (LD50) at 168 h in data set [2] was over 1010 mg/kg. Further, in data set [1], the “A/B (number of animals surviving / number of animals tested)” value is given as 15/20.

In the case of `CCN(CC)Cc1nccn1-c1ccc([N+](=O)[O-])cc1C(=O)c1ccccc1Cl.O=C(O)/C=C/C(=O)O` [nizofenone, 1-[2-(2-chlorobenzoyl)-4-nitrophenyl]-2-(diethylaminomethyl)imidazole fumarate], the “anesthetic or respiration-suppressing action, side effects (literature)” value in data set [3] was “does not exhibit an anesthetic or respiration-suppressing action”. Moreover, in data set [4], the “cerebral protective effect (literature)” value is listed as “has a cerebral protective effect against cerebral ischaemia or cerebral hypoxia, similar to that of barbiturates”. The LD50 in data set [5] was in the range of 450 to 675 mg/kg.

Compound `CC1COCCN1C(=O)C=Cc1ccc(C(F)(F)F)cc1` (stereo not drawn) [Compound 2, 3-methyl-4-(4-trifluoromethylcinnamoyl) morpholine] came in with an LD50 at 168 h in data set [2] of 675 to 1010 mg/kg. The “A/B (number of animals surviving / number of animals tested)” value in data set [1] is recorded as 8/10.

In data set [2], `O=C(C=Cc1ccc(C(F)(F)F)cc1)N1CCOCC1` [Compound 7, 4-(4-Trifluoromethylcinnamoyl) morpholine] displayed an LD50 at 168 h of 300 to 450 mg/kg. Besides, the “A/B (number of animals surviving / number of animals tested)” value in data set [1] is given as 4/10.

`CC1CCN(C(=O)C=Cc2ccc(C(F)(F)F)cc2)CC1` [Compound 8, 4-Methyl-1-(4-trifluoromethylcinnamoyl) piperidine] registered an LD50 at 168 h in data set [2] of over 1010 mg/kg. Also, in data set [1], the “A/B (number of animals surviving / number of animals tested)” value is 5/20.

`O=C(C=Cc1ccc(C(F)(F)F)cc1)N1CCSCC1` [Compound 11, 4-(4-Trifluoromethylcinnamoyl) thiomorpholine]: the “A/B (number of animals surviving / number of animals tested)” value in data set [1] is 7/10.

`O=C(C=Cc1ccc(F)cc1)N1CCOCC1` [Compound 6, 4-(4-Fluorocinnamoyl) morpholine] registered a 50% lethal dose (LD50) at 168 h in data set [2] of over 1010 mg/kg. For the same compound, the “A/B (number of animals surviving / number of animals tested)” value in data set [1] is 2/10.

Consider `O=C(C=Cc1ccc(Cl)c(Cl)c1)N1CCOCC1` [Compound 15, 4(3,4-dichlorocinnamoyl) morpholine], for which, in data set [2], the 50% lethal dose (LD50) at 168 h was 450 to 675 mg/kg. In addition, the “A/B (number of animals surviving / number of animals tested)” value in data set [1] is 5/10.

As for `O=C(C=Cc1ccc(C(F)(F)F)cc1)N1CCS(=O)(=O)CC1` [Compound 13, 4-(4-trifluoromethylcinnamoyl) thiomorpholine-1,1-dioxide], the “A/B (number of animals surviving / number of animals tested)” value in data set [1] is given as 6/10.

As to `CCCC(C)C1(CC)C(=O)NC(=O)NC1=O` (stereo not drawn) [pentobarbital], the “cerebral protective effect (literature)” value in data set [4] is “have a cerebral protective activity”.

With `CC1CCCCN1C(=O)C=Cc1ccc(C(F)(F)F)cc1` (stereo not drawn) [Compound 1, 2-methyl-1-(4-trifluoromethylcinnamoyl) piperidine], the “Survival Time” value in data set [6] was 64.9 ± 5.5 min; in data set [7], 582.8 ± 12.1 s. This compound also had an LD50 at 168 h in data set [2] of over 1010 mg/kg. Also, the “A/B (number of animals surviving / number of animals tested)” value in data set [1] is given as 10/10. For the same compound, the “Persistence Time (gasping)” value in data set [8] was 39.1 ± 1.4 s.

Turning to `O=C(C=Cc1ccc(C(F)(F)F)cc1)N1CCC(O)CC1` [Compound 10, 4-Hydroxy-1-(4-trifluoromethylcinnamoyl) piperidine], the “A/B (number of animals surviving / number of animals tested)” value in data set [1] is on record as 2/10.

As to `CCCC(C)C1(CC)C(=O)NC(=S)NC1=O` (stereo not drawn) [thiopental], the “cerebral protective effect (literature)” value in data set [4] was “have a cerebral protective activity”.

On to `CCC1(c2ccccc2)C(=O)NC(=O)N(C)C1=O` (stereo not drawn) [mephobarbital], for which, in data set [4], the “cerebral protective effect (literature)” value was “have a cerebral protective activity”.

For the compound `CC1CCCCN1C(=O)C=Cc1ccc(Cl)cc1` (stereo not drawn) [Compound 3, 2-Methyl-1-(4-chlorocinnamoyl) piperidine], the entries for the “Survival Time” value in data set [6] and in data set [7] were 47.7 ± 5.5 min and 172.4 ± 11.3 s, respectively. Also, the LD50 at 168 h in data set [2] was over 1010 mg/kg. Further, the “A/B (number of animals surviving / number of animals tested)” value in data set [1] was 9/10. Also, the “Persistence Time (gasping)” value in data set [8] worked out at 30.2 ± 1.1 s.

As to `O=C(C=Cc1ccc(Cl)cc1)N1CCCCC1` [Compound 14, 1(4-chlorocinnamoyl) piperidine], the LD50 at 168 h in data set [2] was over 1010 mg/kg. Besides, in data set [1], the “A/B (number of animals surviving / number of animals tested)” value was 4/10.

Take `O=C(C=Cc1ccc(C(F)(F)F)cc1)N1CCCCC1CO` (stereo not drawn) [Compound 9, 2-Hydroxymethyl-1-(4-trifluoromethylcinnamoyl) piperidine]: the “A/B (number of animals surviving / number of animals tested)” value in data set [1] is 2/10.

For `CC1CCCCN1C(=O)C=Cc1ccc(F)cc1` (stereo not drawn) [Compound 4, 2-Methyl-1-(4-fluorocinnamoyl) piperidine], the “Survival Time” value is 58.4 ± 5.5 min in data set [6] and 126.3 ± 6.9 s in data set [7]. Further, in data set [2], the median lethal dose (LD50) at 168 h is over 1010 mg/kg. Moreover, in data set [1], the “A/B (number of animals surviving / number of animals tested)” value was 7/20. Besides, the “Persistence Time (gasping)” value in data set [8] is 23.5 ± 0.8 s.
